# Test results as given in ChEMBL document CHEMBL3870307, “5-HT7 receptor modulators: Amino groups attached to biphenyl scaffold determine functional activity” (Eur J Med Chem, 2016).
# The source made the active and inactive calls. The rule behind the calls is not given here.
# What was measured:
# [1] = molecular target: T1, 5-hydroxytryptamine receptor 7 (Homo sapiens, UniProt P34969); assay: Agonist activity at human 5-HT7R expressed in HEK293 cells assessed as induction of cAMP levels at 10 uM treated for 10 mins measured after 30 mins by D2-dye based fluorescence assay relative to serotonin; type: functional, cell-based
# [2] = molecular target: T1, 5-hydroxytryptamine receptor 7; assay: Displacement of [3H]D-lysergic acid diethylamide from 5HT7R (unknown origin) expressed in HEK293 cell membranes incubated for 1.5 hrs in absence of light by liquid scintillation counting
# [3] = molecular target: T1, 5-hydroxytryptamine receptor 7; assay: Antagonist activity at human 5-HT7R expressed in HEK293 cells assessed as inhibition of serotonin stimulated cAMP levels at 10 uM preincubated for 10 mins followed by serotonin stimulation after 30 mins by D2-dye based fluorescence assay; type: functional, cell-based
# [4] = molecular target: T1, 5-hydroxytryptamine receptor 7; assay: Displacement of [3H]D-lysergic acid diethylamide from 5HT7R (unknown origin) expressed in CHO-K1 cell membranes incubated for 1.5 hrs in absence of light by liquid scintillation counting
# [5] = molecular target: T1, 5-hydroxytryptamine receptor 7; assay: Agonist activity at human 5-HT7R expressed in HEK293 cells assessed as induction of cAMP levels treated for 10 mins measured after 30 mins by D2-dye based fluorescence assay; type: functional, cell-based
# [6] = molecular target: T1, 5-hydroxytryptamine receptor 7; assay: Antagonist activity at human 5-HT7R expressed in HEK293 cells assessed as inhibition of serotonin stimulated-cAMP levels preincubated for 10 mins followed by serotonin stimulation after 30 mins by D2-dye based fluorescence assay; type: functional, cell-based
# [7] = molecular target: T1, 5-hydroxytryptamine receptor 7; assay: Antagonist activity at human 5-HT7R expressed in HEK293 cells assessed as inhibition of serotonin stimulated-cAMP levels at 100 uM preincubated for 10 mins followed by serotonin stimulation after 30 mins by D2-dye based fluorescence assay; type: functional, cell-based
# T1 sequence (P34969 whole entry): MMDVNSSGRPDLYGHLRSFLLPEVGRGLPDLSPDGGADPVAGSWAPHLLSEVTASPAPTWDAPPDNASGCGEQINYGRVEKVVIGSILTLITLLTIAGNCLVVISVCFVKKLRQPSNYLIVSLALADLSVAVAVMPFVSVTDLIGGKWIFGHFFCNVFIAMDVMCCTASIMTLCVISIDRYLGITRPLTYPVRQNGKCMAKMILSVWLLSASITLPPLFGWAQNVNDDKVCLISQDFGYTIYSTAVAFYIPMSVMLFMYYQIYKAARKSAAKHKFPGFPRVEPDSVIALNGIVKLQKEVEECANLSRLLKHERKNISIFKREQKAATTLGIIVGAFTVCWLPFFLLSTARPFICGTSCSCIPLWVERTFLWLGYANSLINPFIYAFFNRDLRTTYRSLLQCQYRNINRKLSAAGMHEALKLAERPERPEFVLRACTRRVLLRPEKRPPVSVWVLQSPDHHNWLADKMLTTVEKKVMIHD
Structure (SMILES),Emax [1] [%],Ki [2] [nM],Imax [3] [%],EC50 [5] [nM],IC50 [6] [nM],inhibition [7],Ki [4] [nM]
COc1ccccc1-c1cccc(CN2CCN(c3ccccc3OC)CC2)c1,,,,,,,15
COc1ccccc1-c1cc(CN(C)C)cc2c1OCO2,3.97,772,13.5,,,,
COc1ccccc1-c1cc(CN2CCN(c3ccccc3OC)CC2)ccc1Cl,-7.72,73,91,,23100,Active,
COc1ccccc1-c1cc(CN(C)C)ccc1OC,28.8,1020,4.54,,,,
COc1ccccc1-c1cc(CN2CCC(C)CC2)ccc1C,2.53,1120,29,,,,
COc1ccccc1-c1cccc(CN(C)C)c1,15.4,126,40.8,,,,
COc1ccccc1-c1cc(CN2CCN(c3ccccc3OC)CC2)cc2c1OCO2,-1.56,34,93.7,,19800,Active,
CNCc1cccc(-c2ccccc2OC)c1,24.5,226,-0.87,,,,
COc1ccccc1-c1cc(CN2CCN(c3ccccc3OC)CC2)ccc1C,14,18,69.3,,6350,Active,
CNCc1cc2c(c(-c3ccccc3OC)c1)OCO2,13.6,1480,8.4,,,,

# Now from value to compound, other results behind:
Emax [1] [%],Ki [2] [nM],Imax [3] [%],EC50 [5] [nM],IC50 [6] [nM],inhibition [7],Structure (SMILES),Ki [4] [nM]
-14.4,389,52.3,,,,COc1ccccc1-c1cc(CN2CCC(C)CC2)ccc1Cl,
55.5,15,2.49,3200,,,CNCc1ccc(C)c(-c2ccccc2OC)c1,
66.8,5.2,4.66,550,,,CNCc1ccc(Cl)c(-c2ccccc2OC)c1,
7.6,691,15.6,,,,COc1ccccc1-c1cc(CN2CCC(C)CC2)cc2c1OCO2,
,,100,,,,CC1CCN(CC[C@H]2CCCN2S(=O)(=O)c2cccc(O)c2)CC1,
-2.42,79,91.6,,5570,Active,COc1ccccc1-c1cc(CN2CCN(c3ccccc3OC)CC2)ccc1OC,
-1.14,3060,7.74,,,,COc1ccccc1-c1cc(CN2CCC(C)CC2)ccc1OC,
11,648,2.25,,,,CNCc1ccc(OC)c(-c2ccccc2OC)c1,
8.59,1040,39,,,,COc1ccccc1-c1cccc(CN2CCC(C)CC2)c1,
33.3,23,6.61,,,,COc1ccccc1-c1cc(CN(C)C)ccc1C,
27.6,18,10.3,,,,COc1ccccc1-c1cc(CN(C)C)ccc1Cl,
